Measurements from PubChem BioAssay AID256 (DTP/NCI, 2004).
Where “and” joins values, the source holds several entries; their conditions need not be identical. Equal entries are not always repeated. Toxic doses and inconclusive results are not listed.

System: CD2F1 mice, L1210 leukemia ip, survival T/C
Experiment: NCI In Vivo Anticancer Drug Screen. Data for tumor model L1210 Leukemia (intraperitoneal) in CD2F1 (CDF1) mice
Details: higher = longer survival
Method in brief: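 Mice carrying a transplanted tumor received test compound or vehicle alone. The value is the measurement in the treated group divided by that in the vehicle-treated control group.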

[1] = endpoint: mean survival time, dose: 25.0 mg/kg/injection, schedule: Q01DX009 (ip), vehicle: saline with Tween-80
[2] = endpoint: mean survival time, dose: 50.0 mg/kg/injection, schedule: Q01DX009 (ip), vehicle: saline with Tween-80
[3] = endpoint: mean survival time, dose: 100.0 mg/kg/injection, schedule: Q01DX009 (ip), vehicle: saline with Tween-80
[4] = endpoint: mean survival time, dose: 100.0 mg/kg/injection, schedule: Q04DX003 (ip), vehicle: saline with Tween-80
[5] = endpoint: mean survival time, dose: 200.0 mg/kg/injection, schedule: Q01DX009 (ip), vehicle: saline with Tween-80
[6] = endpoint: mean survival time, dose: 200.0 mg/kg/injection, schedule: Q04DX003 (ip), vehicle: saline with Tween-80
[7] = endpoint: mean survival time, dose: 400.0 mg/kg/injection, schedule: Q04DX003 (ip), vehicle: saline with Tween-80
[8] = endpoint: mean survival time, dose: 100.0 mg/kg/injection, schedule: Q04DX003 (ip), vehicle: saline sonified
[9] = endpoint: mean survival time, dose: 200.0 mg/kg/injection, schedule: Q04DX003 (ip), vehicle: saline sonified
[10] = endpoint: mean survival time, dose: 400.0 mg/kg/injection, schedule: Q04DX003 (ip), vehicle: saline sonified

## CC1CNC(=S)O1 (stereo not given)
[1]
  T/C: 102 % of control
[2]
  T/C: 100 % of control
[3]
  T/C: 97 % of control and 103 % of control
[4]
  T/C: 100 % of control
[5]
  T/C: 97 % of control and 95 % of control
[6]
  T/C: 97 % of control
endpoint: mean survival time, dose: 400.0 mg/kg/injection, schedule: Q01DX009 (ip), vehicle: saline with Tween-80
  T/C: 97 % of control and 106 % of control
[7]
  T/C: 103 % of control

## Cc1oc2c(C)c3oc(=O)cc(C)c3cc2c1CCl
endpoint: mean survival time, dose: 12.5 mg/kg/injection, schedule: Q01DX009 (ip), vehicle: saline with Tween-80
  T/C: 101 % of control and 105 % of control
[1]
  T/C: 96 % of control and 105 % of control
[2]
  T/C: 96 % of control and 108 % of control
[3]
  T/C: 109 % of control
[5]
  T/C: 91 % of control

## Cc1cc(Nc2ccc3c(c2)OCO3)c2cc3c(cc2n1)OCO3
endpoint: median survival time, dose: 25.0 mg/kg/injection, schedule: Q01DX009 (ip), vehicle: Klucel (hydroxypropylcellulose) (HPC)
  T/C: 105 % of control
endpoint: median survival time, dose: 50.0 mg/kg/injection, schedule: Q01DX009 (ip), vehicle: Klucel (hydroxypropylcellulose) (HPC)
  T/C: 121 % of control
endpoint: median survival time, dose: 100.0 mg/kg/injection, schedule: Q01DX009 (ip), vehicle: Klucel (hydroxypropylcellulose) (HPC)
  T/C: 94 % of control

## N#CSC/C(=N\Nc1ccc([N+](=O)[O-])cc1[N+](=O)[O-])c1ccccc1
[8]
  T/C: 103 % of control
[9]
  T/C: 102 % of control
[10]
  T/C: 103 % of control

## C[n+]1ccc(/C=C\Nc2ccccn2)cc1
endpoint: mean survival time, dose: 75.0 mg/kg/injection, schedule: Q01DX001 (ip), vehicle: saline
  T/C: 103 % of control
endpoint: mean survival time, dose: 150.0 mg/kg/injection, schedule: Q01DX001 (ip), vehicle: saline
  T/C: 108 % of control

## CO[C@@]12[C@@H]3N[C@@H]3CN1C1=C(C(=O)C(NCc3ccco3)=C(C)C1=O)[C@@H]2COC(N)=O
endpoint: mean survival time, dose: 1.5 mg/kg/injection, schedule: Q01DX001 (ip), vehicle: distilled water + Tween-80
  T/C: 113 % of control
endpoint: mean survival time, dose: 3.0 mg/kg/injection, schedule: Q01DX001 (ip), vehicle: distilled water + Tween-80
  T/C: 120 % of control
endpoint: mean survival time, dose: 24.0 mg/kg/injection, schedule: Q01DX001 (ip), vehicle: distilled water + Tween-80
  T/C: 156 % of control
endpoint: mean survival time, dose: 36.0 mg/kg/injection, schedule: Q01DX001 (ip), vehicle: distilled water + Tween-80
  T/C: 108 % of control

## O=C(O)CC1CCCCCCCCCCC1=O (stereo not given)
endpoint: mean survival time, dose: 100.0 mg/kg/injection, schedule: Q04DX002 (ip), vehicle: saline with Tween-80
  T/C: 98 % of control
endpoint: mean survival time, dose: 200.0 mg/kg/injection, schedule: Q04DX002 (ip), vehicle: saline with Tween-80
  T/C: 91 % of control
endpoint: mean survival time, dose: 400.0 mg/kg/injection, schedule: Q04DX002 (ip), vehicle: saline with Tween-80
  T/C: 98 % of control

## COc1cc(OC)cc(C(=O)Cl)c1
[8]
  T/C: 98 % of control
[9]
  T/C: 95 % of control
[10]
  T/C: 91 % of control

## S=c1cc[nH]c2ccccc12
endpoint: mean survival time, dose: 12.5 mg/kg/injection, schedule: Q01DX009 (ip), vehicle: other
  T/C: 104 % of control
endpoint: mean survival time, dose: 25.0 mg/kg/injection, schedule: Q01DX009 (ip), vehicle: other
  T/C: 102 % of control
endpoint: mean survival time, dose: 50.0 mg/kg/injection, schedule: Q01DX009 (ip), vehicle: other
  T/C: 104 % of control

## CC(Cc1ccccc1)NC1=NCCO1 (stereo not given)
[2]
  T/C: 96 % of control
[3]
  T/C: 104 % of control
[4]
  T/C: 104 % of control and 98 % of control and 89 % of control
[5]
  T/C: 93 % of control
[6]
  T/C: 91 % of control and 87 % of control
[7]
  T/C: 86 % of control
